According to patent US3969419A, “3-(2-Halo-4-biphenylyl)-1-butanols and derivatives thereof” (Boehringer Ingelheim GmbH, priority 1973, dated 1976):
Where two headings read alike, the source gives them in different places.

Tests used:
[1] = test system: kaolin edema of the hind paws of the rat; assay: anti-exudative effect on the kaolin edema of the hind paws of the rat; assay type: in vivo, rat (male FW 49); settings: per os 30 minutes before inducement of edema, swelling at 5 hours, dose leading to 35% reduction of the swelling, graphic extrapolation
Procedure: (§1) The compounds were tested for their anti-exudative effects on the kaolin edema and carrageenin edema of the hind paws of the rat, for their ulcerogenicity and for their acute toxicity by oral administration to rats.
(§2) The kaolin edema was induced according to the method of Hillebrecht [Arzneimittel-Forsch. 4, 607 (1954) ] by subplantary injection of 0.05 ml of a 10% suspension of kaolin in a 0.85% sodium chloride solution. The measurement of the thickness of the paws was done by using the technique of Doepfner and Cerletti (Int. Arch. Allergy, Immunol. 12, 89 (1958)).
(§3) Male FW 49-rats of an average weight of 120-150 gm were orally treated with the test compounds 30 minutes before inducement of the edema with the aid of a esophageal tube. Five hours after the provocation of the edema the averaged values of the swelling caused in the paws of the rats treated with the test compounds were compared with those values measured on blind-treated control animals. By graphic extrapolation the dose leading to a 35% reduction of the swelling (ED35) was calculated from the percent reduction values measured by administration of different doses.

[2] = test system: carrageenin edema of the hind paws of the rat; assay: anti-exudative effect on the carrageenin edema of the hind paws of the rat; assay type: in vivo, rat (male FW 49); settings: per os 60 minutes before provocation of edema, measured 3 hours after, dose leading to 35% reduction of the swelling
Procedure: as §1
(§4) The provocation of the carrageenin edema was effected according to the method of Winter et al. [Proc. Soc. exp. Biol. Med. 111, 544 (1962) ] by subplantary injection of 0.05 ml of a 1% solution of carrageenin in a 0.85% solution of sodium chloride. The test compounds were orally administered 60 minutes before the provocation of the edema.
(§5) For the calculation of the reductive effect on the edema, the values measured three hours after the provocation of the edema were used. All the other details were the same as described above in the case of the kaolin edema.

[3] = test system: kaolin and carrageenin edema of the hind paws of the rat; assay: average anti-exudative (antiphlogistic) activity against kaolin and carrageenin edema; assay type: in vivo, rat (male FW 49); settings: per os, for C only from carrageenin edema
Procedure: The compounds of the present invention were tested for antiphlogistic activity, ulcerogenic activity and acute toxicity in the manner described below, and representative results of these tests are shown in the tables, where
as §1, §2, §3, §4, §5
(§6) The therapeutic indices, as a measure for the therapeutic usefulness, were calculated by forming the quotient of the ED50 -value for the ulcerogenicity or of th LD50 -value and the ED35 -value derived from the tests for anti-exudative activity against the kaolin and carrageenin edema.

[4] = in vivo; settings: po; for selectivity ratio: quotient of ulcerogenic ED50 and average antiexudative ED35, rat, per os, read-out: Therapeutic index: Ratio of ulcerogenic activity to antiexudative activity ED50/ED35; for TD50: rat
Procedure: as §1
The tests for ulcerogenic activity were effected on FW 49-rats of both sexes (ratio 1:1) having a body weight of 130 to 150 gm. The animals were given the substances on three subsequent days, once each day, as a trituration in tylose by way of an esophageal tube.
The animals were killed four hours after the last administration; the stomach and duodenal mucosa were investigated for ulcers.
From the percentage of animals showing at least one ulcer after administration of different doses, the ED50 -value was calculated according to the method of Litchfield and Wilcoxon [J. Pharmacol. exp. Therap. 96, 99 (1949) ].
as §6

[5] = acute toxicity by oral administration to rats; assay type: in vivo; settings: in vivo, po; for selectivity ratio: quotient of LD50 and average anti-exudative ED35, rat, per os, read-out: Therapeutic ratio LD50/aver.ED35; for LD50 at 336 h: rat, per os as trituration in tylose, deaths within 14 days, Litchfield and Wilcoxon
Procedure: as §1
(§7) After oral administration to male and female FW 49-rats (ratio 1:1) having an average body weight of 135 gm, the acute toxicity (LD50) was determined. The substances were administered orally as a trituration in tylose.
(§8) The calculation of the LD50 -values was effected, as far as possible, according to the method of Litchfield and Wilcoxon, based on the percentage of animals which died within 14 days after administration of the different doses.
as §6

[6] = test system: rat; assay: acute toxicity by oral administration to rats; assay type: in vivo; settings: rat, per os, at 1600 mgm/kg, within 14 days
Procedure: as §1, §7, §8, §6

[7] = Table I, average of kaolin and carrageenin edema, read-out: Average anti-exudative ED35 per os
[8] = Table II, read-out: Average antiexudative ED35

Compound | ED35 [1] [mg/kg] | ED35 [2] [mg/kg] | ED35 [3, 7] [mg/kg] | ED35 [3, 8] [mg/kg] | selectivity ratio [4] | TD50 [4] [mg/kg] | selectivity ratio [5] | LD50 at 336 h [5] [mg/kg] | animals died [6]
CC(CCO)c1ccc(-c2ccccc2)c(F)c1 (stereo not drawn) [A, 3-(2-fluoro-4-biphenylyl)-1-butanol] | 17 | 8.5 | 12.8 | 12.8 | 2.39 | 30.5 | 64.7 | 825 | –
CC(CCOC(=O)c1ccncc1)c1ccc(-c2ccccc2)c(F)c1.Cl (stereo not drawn) [B, 3-(2-fluoro-4-biphenylyl)-1-butyl isonicotinate hydrochloride] | 20 | 13 | 16.5 | 16.5 | 3.7 | 61 | 92.7 | 1530 | –
CC(CCO)c1ccc(-c2ccccc2)c(Cl)c1 (stereo not drawn) [C, 3-(2-chloro-4-biphenylyl)-1-butanol] | – | 17 | 17 | 17 | 2.15 | 36.6 | > 94.1 | > 1600 | 1 out of 10
